In article PMC4663167 (Insect biochemistry and molecular biology, 2015):

Biological target: PhumOR2 (odorant receptor) (Pediculus humanus, UniProt A0ACM8QMA3)
Type: cell-based

SMILES	EC50 [µM]
CC(O)c1ccccc1 (stereo not drawn) [1-phenylethanol]	1300
Cc1cccc(O)c1C [2,3-dimethylphenol]	103
CC1CCC(O)CC1 (stereo not drawn) [4-methylcyclohexanol]	120
